The values below come from PubChem BioAssay AID1061 (NMMLSC, 2008).

Activity calls are given as the source filed them. How the calls were made is not given here.

N-formyl peptide receptor 2 (Homo sapiens), sequence (P25090 whole entry, looked up): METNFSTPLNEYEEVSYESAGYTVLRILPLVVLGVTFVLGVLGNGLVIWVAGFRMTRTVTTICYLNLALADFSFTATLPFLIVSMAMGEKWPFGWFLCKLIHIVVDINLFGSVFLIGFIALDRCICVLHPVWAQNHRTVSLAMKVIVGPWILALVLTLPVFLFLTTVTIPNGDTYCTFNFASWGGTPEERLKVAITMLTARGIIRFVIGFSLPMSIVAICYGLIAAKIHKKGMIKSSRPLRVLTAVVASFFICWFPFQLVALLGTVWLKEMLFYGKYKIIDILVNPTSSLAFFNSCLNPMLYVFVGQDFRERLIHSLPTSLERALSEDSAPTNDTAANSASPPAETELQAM

This assay addresses N-formyl peptide receptor 2 (Homo sapiens) (UniProt P25090). Kind of assay: FPRL1 antagonists blocking calcium signal, SAR follow-up, cell-based, calcium response, secondary assay (AID 1061). As to conditions: FPRL1-expressing cells, antagonist mode, at 100 µM, stronger effect = higher value.
For `COc1ccc(-c2cn3cccnc3n2)cc1NC(=O)C1CC1`, the inhibition is 79%. As for `COc1ccc(-c2cn3cccnc3n2)cc1NC(=O)C(C)C`, the inhibition was 93%. On to `COc1ccc(-c2cc(C(F)(F)F)nc(N3CCN(Cc4ccccc4)CC3)n2)cc1OC`, for which the inhibition is 48% (inactive).

In the case of `COc1ccc(CC(=O)Nc2cc(-c3cn4cccnc4n3)ccc2OC)cc1`, the inhibition is 75%. For `CCC(=O)Nc1cc(-c2cn3cccnc3n2)ccc1OC`, the inhibition was 36% (inactive).

A word on the inhibition: it is the share of the control response that was lost under treatment.
